Values joined by “and” are separate entries in the source; they are usually repeats but may differ in a detail not shown here. Equal values may be shown once.
Legend:
optic nerve axons = assay: Optic nerve transection, optic nerve axon density (RT97 neurofilament immunohistochemistry); format: in vivo, Sprague Dawley rats; conditions: for % surviving RGCs with ON axons / ON head area (% sham) / increased ON axon density / ON axon Count / ON Axon density: 90 days after ONT; for increased ON axon density: adjusted for optic nerve diameter; for ON axon Count: axonal density multiplied by ON area; for ON Axon density: mean + SEM in 200 μm × 200 μm region
From the text: (§1) All eyes and optic nerves stumps were removed.
^2 mean density + SEM of RT97 neurofilament antibody labeled optic
nerve (ON) axons in 200 μm × 200 μm region of interest
^3 adjusted for optic nerve diameter
^4 calculated by multiplying axonal density by ON area

neurite outgrowth = assay: Neurite outgrowth in culture; format: cell-based
[1] = system: streptozotocin-induced diabetic rat; assay: Streptozotocin-induced diabetic sensory neuropathy, hot plate and tail flick tests; format: in vivo, Male Wistar rats; conditions: 10 mg/kg s.c., 6 weeks
Protocol: The procedure involved using Male Wistar rats which were given a single injection of streptozotocin (65 mg/kg i.v.). Blood glucose levels were determined weekly for the first three weeks and on the last week of the experiment. Animals were evaluated weekly for signs of sensory neuropathy using the conventional hot plate and tail flick apparatus test procedures.

[2] = system: retinal ganglion cell axons; assay: Protection of retinal ganglion cell axons from degeneration following optic nerve transection, RT 97 axon density (Table V); format: in vivo
From the text: Efficacy of representative compounds from different immunophilin ligand series in protecting retinal ganglion cell axons from degeneration following optic nerve transection is set forth in Table V.

retinal ganglion cells = assay: Optic nerve transection, retinal ganglion cell survival (Fluoro-gold counts); format: in vivo, Sprague Dawley rats; conditions: for RGC Counts: mean density + SEM in 400 μm sample gridfields
From the text: as §1
^1 Mean density + SEM of Fluoro-gold labeled retinal ganglion cells
(RGC) in 400 μm […] sample gridfields.

[3] = system: central and peripheral nervous systems; conditions: Proc. Nat'l. Acad. Sci. USA 94, 2019-2024, 1997; cited from earlier work
optic nerve myelin = assay: Optic nerve transection, myelin basic protein immunohistochemistry of optic nerve stumps; format: in vivo, Sprague Dawley rats; conditions: for Proximal optic nerve myelin basic protein Density, % recovery: SEM
From the text: as §1
^5 determined from 20X analysis of % areal coverage of optic nerve
^6 shrinkage determined by comparing cross sectional area to sham
control, myelin, leves determined by multiplying cross sectional area by […]

[4] = 14 days treatment, 90 days after ONT
[5] = 28 days treatment, 90 days after ONT
[6] = distal stump, first 28 days after transection
[7] = proximal stump, first 28 days after transection

## CCC(C)(C)C(=O)C(=O)N1CCC[C@H]1C(=O)OCCCc1cccnc1 [GPI 1046]
Optic nerve axons; 14 days treatment
  % surviving RGCs with ON axons: 33.6%
  ON head area (% sham): 76%
  increased ON axon density: 1.5 X
  ON axon Count: 6820
  ON Axon density: 569 ± 23
Optic nerve axons; 28 day treatment
  density of large, medium and small caliber optic nerve axons: significant increase in the density of large, and particularly medium and small caliber optic nerve axons
Optic nerve axons; 28 days treatment
  % surviving RGCs with ON axons: 81.4%
  ON head area (% sham): 95%
  increased ON axon density: 5.0 X
  ON axon Count: 22,861
  ON Axon density: 1526 ± 120
Optic nerve axons; FIG. 5
  effect on optic nerve axons versus ganglion cell bodies: greater effect on optic nerve axons than ganglion cell bodies
Optic nerve axons; first 14 days after transection
  protection of optic nerve axons: 5.3%
Optic nerve axons; following optic nerve transection, FIG. 12
  preservation of optic nerve axons in the proximal stump: preserves optic nerve axons in the proximal stump
Neurite outgrowth
  neurite outgrowth in culture: enhances neurite outgrowth in culture
[1]
  behavioral sequelae of diabetic sensory neuropathy: ameliorates the behavioral sequelae of diabetic sensory neuropathy
  latency, hot plate: improvement in latency
  latency, tail flick: improvement in latency
[2]
  RT 97 RCC axon density 11 days after ON transection (36 ON axon rescued): 60.5%
Retinal ganglion cells; [4]
  % RGCs Rescued: 5.3%
  Spared RGC population: 20,275
  RGC Counts: 49 ± 5.3
Retinal ganglion cells; 14 days treatment, 90 days after transection, in words
  density of retinal ganglion cells that survived: small but not significant increase
Retinal ganglion cells; [5]
  % RGCs Rescued (protection of the vulnerable ganglion cell population): 12.6%
  Spared RGC population: 28,096
  RGC Counts: 67.9 ± 5.8
Retinal ganglion cells; FIG. 10
  effect on retinal ganglion cells following Optic Nerve Transection: neuroprotective effect
Retinal ganglion cells; first 28 days after transection
  protection of the vulnerable ganglion cell population, in words: moderate but significant protection
[3]
  repair and regeneration in the central and peripheral nervous systems: promote repair and regeneration in the central and peripheral nervous systems
Optic nerve myelin; [4]
  Distal optic nerve myelin basic protein Density, loss: 47%
  Proximal optic nerve myelin basic protein Density, % recovery: 1.6% and 1.6 ± 3.0%
Optic nerve myelin; 14 days treatment, 90 days after ONT, cross sectional area vs sham control
  Distal optic nerve, shrinkage: 33%
Optic nerve myelin; [5]
  Distal optic nerve myelin preservation (myelin levels of normal): ~ 99% and 99%
  Distal optic nerve, less shrinkage: 56%
  Proximal optic nerve myelin basic protein Density, % recovery: 70% and 70 ± 6.3%
Optic nerve myelin; distal stump, first 14 days after transection
  density of degenerating myelin figures: remained high
Optic nerve myelin; distal stump, first 14 days after transection, in words
  density of myelin: slightly increase the density of myelin
Optic nerve myelin; [6]
  density of degenerating myelin figures: decreased the density of degenerating myelin figures
  fascicular pattern of myelin labeling: dramatic protection of the fascicular pattern of myelin labeling
Optic nerve myelin; first 14 days after transection, in words
  shrinkage of the distal stump: did not protect against shrinkage of the distal stump
Optic nerve myelin; first 28 days after transection, in words
  cross sectional shrinkage of the distal stump: prevented cross sectional shrinkage of the distal stump
Optic nerve myelin; proximal stump, first 14 days after transection
  pattern of myelin degeneration: did not alter the pattern of myelin degeneration
Optic nerve myelin; [7]
  density of degenerating myelin figures: decreased the density of degenerating myelin figures
  fascicular staining pattern for myelin basic protein: dramatic preservation of the fascicular staining pattern for myelin basic protein

Reference: patent US6333340A, “Small molecule sulfonamides for vision and memory disorders” (Gpi Nil Holdings, Inc., priority 1998, dated 2001)
